Experiments:
RAW 264.7 cell line [1] = experiment: Nitric oxide (NO) production assay in LPS-treated RAW 264.7 (Griess reagent); assay type: cell-based, mouse; conditions: for NO production rate compared with control / NO production, combined treatment / NO production compared to the control: LPS 100 ng/mL; for NO production rate compared with control / NO production compared to the control: independent treatment; for NO production rate compared with control: 10 μg/mL; for inhibitory effect on NO production (in words): LPS-induced RAW 264.7, independent treatment
Protocol: (§1) RAW 264.7 cell line, a mouse macrophage cell line was purchased from KCLB (Korean Cell Line Bank, Korea). After RAW 264.7 was added with 10% fetal bovine serum (FBS, GIBCO, USA) and 1% antibiotics-antimycotic (GIBCO, USA), the cell was subcultured in Dulbecco's modified Eagle's medium (DMEM, WELGENE, Korea) in a 37° C., 5% CO2 incubator (Thermo Fisher Inc., USA).
After RAW 264.7 cell line was independently treated with any one of the flavonoid componentsor Sorbus commixta extract, and was combinedly treated with any one of the flavonoid components and the Sorbus commixta extract, an evaluation of Nitric Oxide production (NO assay) was conducted to identify effects on NO secretion induced by LPS.
At this time, RAW 264.7 cells were seeded at 1×10^5 cells/well in 96-well plates and cultured in a 37° C., 5% CO2 incubator for 24 hours. Each cell was pretreated with samples by concentration (pinocembrin, quercetin, kaempferol, glangin, and chrysin at concentrations of 1, 2.5, 5, and 10 μg/mL, caffeic acid and p-Coumaric acid at concentrations of 2.5, 5, 10, and 25 μg/mL, and Sorbus commixta ethanol extract at concentrations of 25, 50, 100, and 250 ppm), respectively, and then the cells were treated with LPS (Sigma-Aldrich Inc, USA) to a final concentration of 100 ng/mL to induce the inflammatory response for 20 hours. After the induction of the inflammatory response, a 100 μL supernatant of a 96-well plate was added with a 100 μL Griess reagent (Sigma-Aldrich Inc., USA) at a concentration of 40 mg/mL (in water), and reacted in the dark for 15 minutes, and the optical density was measured at 540 nm using a Tecan infinite 200 microplate reader (Tecan Trading AG, Switzerland). A quantitative line was drawn using Sodium nitrite (Sigma-Aldrich Inc., USA), and each value of optical density was substituted to the quantitative line to determine the amount of produced Nitric Oxide (NO).
In the inflammatory response of macrophages induced by LPS treatment, the treatment effects of any one of the flavonoid components or Sorbus commixta ethanol extract on NO production were determined.

[2] = system: RBL-2H3 basophilic cell line; experiment: beta-Hexosaminidase release assay (degranulation by anti-DNP-IgE / DNP-BSA); assay type: cell-based, Rat; conditions: for beta-Hexosaminidase released compared to the positive control / degree of degranulation of RBL-2H3 cells (in words): independent treatment; for beta-Hexosaminidase released compared to the positive control: 1 hour pretreatment
Protocol: Effects of quercetin, kaempferol, chrysin, and Sorbus commixta ethanolic extract on allergic response were determined by measuring the release of beta-Hexosaminidase through degranulation caused by the antibody-antigen binding in the RBL-2H3 basophilic cells. The RBL-2H3 basophilic cell line of Rat was purchased from ATCC (American Type Culture Collection, USA), and then it was added with a 10% fetal bovine serum and a 1% antibiotics-antimycotic in Dulbecco's modified Eagle's medium, and was subcultured in a 37° C., 5% CO2 incubator. A beta-Hexosaminidase release assay was carried out to figure out effects of independent treatment of any one of the flavonoid components or the Sorbus commixta ethanolic extract, and combined treatment of any one of the flavonoid components (quercetin, kaempferol, chrysin) with Sorbus commixta ethanolic extract on the release of beta-Hexosaminidase through the degranulation of RBL-2H3 basophilic cell line. The RBL-2H3 cells were seeded at 8×10^4 cells/well in the 96 well plates, and stabilized in a 37° C., 5% CO2 incubator for 3 hours, then treated with anti-DNP-IgE (Sigma-Aldrich Inc., USA) to a final concentration of 250 ng/mL for cell sensitization, and incubated for 24 hours. After culturing, the supernatant liquid was removed and washed twice with Siraganian buffer (NaCl 119 mM, KCl 5 mM, Glucose 5.6 mM, PIPES 25 mM, MgCl2, 0.4 mM, CaCl2 1 mM, BSA 0.1%, pH 7.2, Biosolution, Korea), and concentration-specific samples dissolved in Siraganian buffer were pretreated into the cells for 1 hour. After the pretreatment, the final concentration of DNP-BSA (Sigma-Aldrich Inc., USA) was treated to be at 150 ng/mL, and cultured for 1 hour to induce degranulation. After degranulation induction, 80 μL of supernatant and 20 μL of 10 mM 4-Nitrophenyl N-acetyl-β-D-glucosaminide (in 0.1 M citrate buffer, pH 4.5, Sigma-Aldrich Inc., USA) were reacted in the 96 well plate for 4 hours at a 37° C. incubator. After 4 hours, the reaction was terminated by adding 100 μL of 0.5 M sodium carbonate, and the optical density was measured at 405 nm using a Tecan infinite 200 microplate reader. First, RBL-2H3 cells' degranulation induced by antibody-antigen binding was determined when independently treated with any one of the flavonoid components or Sorbus commixta ethanolic extract. RBL-2H3 cells were sensitized with antibodies for one day, pretreated with different concentration levels of 3 selected flavonoid components, or Sorbus commixta ethanol extract for one hour, followed by additionally being treated with antigens. A group treated with neither the extract nor the antigen was a negative control, and a group independently treated with ethanol as the solvent for the sample and induced for degranulation only was a positive control. When RBL-2H3 cell degranulation is induced by antibody-antigen binding, beta-Hexosaminidase, an indicator of early response is released. On top of that, a substrate addition (P-NAG) leads to the degradation of the substrate and the suspension of the degradation reaction, resulting in a color change. In that case, the amount of beta-hexosaminidase may be determined by measuring the optical density, which may it possible to compare the degree of induced inhibition or induced activation of degranulation. The changes in the amount of beta-Hexosaminidase released by the combined treatment of the Sorbus commixta ethanolic extract with any one of the three selected active ingredients of the flavonoid components were intended to be determined. A group treated with neither the extract nor the antigen was a negative control, and a group independently treated with ethanol as the solvent for the sample and induced for degranulation only was a positive control.

RAW 264.7 cell line [3] = experiment: MTT cell viability assay, RAW 264.7; assay type: cell-based; conditions: mouse, 24 h, 10 μg/mL
Protocol: as §1
A cell viability rate was analyzed by carrying out an MTT assay in order to determine the toxicity of the flavonoid components and Sorbus commixta ethanolic extract on the cell line treatment. The RAW 264.7 cell line was seeded 5×10^4 cells/well in a 96 well plate, and cultured in a 37° C., 5% CO2 incubator. After the culture, the flavonoid components and Sorbus commixta ethanolic extract were treated and additionally treated for the next 24 hours. After the additional culture, a 0.1 mg/mL MTT solution (Sigma-Aldrich Inc., USA) was dispensed in each well, the cells were cultured for 4 hours before the supernatant was removed. The resulting formazan was dissolved by seeding 100 μL of DMSO (Sigma-Aldrich Inc., USA) into each well, followed by orbital shaking (87.9 rpm) for 15 minutes, and optical density was measured at 540 nm using a Tecan infinite 200 microplate reader. The measured values of optical density were described as a percentage by substituting into the equation below. […]

[4] = flavonoid 1 μg/mL (first of series) combined with Sorbus commixta ethanol extract
[5] = flavonoid 2.5 μg/mL (second of series) combined with Sorbus commixta ethanol extract
[6] = flavonoid 5 μg/mL (third of series) combined with Sorbus commixta ethanol extract
[7] = flavonoid 10 μg/mL (fourth of series) combined with Sorbus commixta ethanol extract
[8] = 1 μg/mL (first of series 1, 2.5, 5, 10 μg/mL)

| Compound | NO production rate compared with control (RAW 264.7 cell line [1]) | NO production, combined treatment (RAW 264.7 cell line [1]; [4]) | NO production, combined treatment (RAW 264.7 cell line [1]; [5]) | NO production, combined treatment (RAW 264.7 cell line [1]; [6]) | NO production, combined treatment (RAW 264.7 cell line [1]; [7]) | NO production compared to the control (RAW 264.7 cell line [1]; [8]) | NO production compared to the control (RAW 264.7 cell line [1]; 2.5 μg/mL (second of series)) | NO production compared to the control (RAW 264.7 cell line [1]; 5 μg/mL (third of series)) | production rate of beta-Hexosaminidase compared to the control group ([2]; 1 μg/mL mixed with 25 ppm of Sorbus commixta ethanol extract) | beta-Hexosaminidase released compared to the positive control ([2]; 1 μg/mL) | cell viability rate (RAW 264.7 cell line [3]) | inhibitory effect on NO production (in words) (RAW 264.7 cell line [1]) | production rate of beta-Hexosaminidase compared to the control group ([2]; 2.5 μg/mL mixed with 25 ppm of Sorbus commixta ethanol extract) | degree of degranulation of RBL-2H3 cells (in words) [2] | beta-Hexosaminidase released compared to the positive control ([2]; 0.5 μg/mL) | production rate of beta-Hexosaminidase compared to the control group ([2]; 0.5 μg/mL mixed with 25 ppm of Sorbus commixta ethanol extract) |
| --- | --- | --- | --- | --- | --- | --- | --- | --- | --- | --- | --- | --- | --- | --- | --- | --- |
| O=C(O)/C=C/c1ccc(O)c(O)c1 [caffeic acid] | 97% | – | – | – | – | – | – | – | – | – | – | – | – | – | – | – |
| O=c1cc(-c2ccccc2)oc2cc(O)cc(O)c12 [chrysin] | 10% | 72% | 55% | 38% | 9% | 89% | 74% | 43% | 95.9% | 83% | – | – | – | – | – | – |
| O=c1c(O)c(-c2ccccc2)oc2cc(O)cc(O)c12 [galangin] | 82% | – | – | – | – | – | – | – | – | – | greater than 80% | – | – | – | – | – |
| O=c1c(O)c(-c2ccc(O)cc2)oc2cc(O)cc(O)c12 [kaempferol] | 42% | 75% | 71% | 60% | 39% | 92% | 85% | 66% | – | – | – | highest inhibitory effect on NO production | 79.8% | decreased the degree of degranulation | 85% | – |
| O=C1C[C@@H](c2ccccc2)Oc2cc(O)cc(O)c21 [pinocembrin] | 90% | – | – | – | – | – | – | – | – | – | greater than 80% | – | – | – | – | – |
| O=c1c(O)c(-c2ccc(O)c(O)c2)oc2cc(O)cc(O)c12 [quercetin] | 41% | 78% | 70% | 55% | 39% | 97% | 81% | 63% | – | – | – | highest inhibitory effect on NO production | – | decreased the degree of degranulation | 64% | 86.8% |
| p-coumaric acid (4-Hydroxycinnamic acid) | 90% | – | – | – | – | – | – | – | – | – | – | – | – | – | – | – |
